# Experimental data: ChEMBL document CHEMBL1201862, “PubChem BioAssay data set” (2004)
# The source made the active and inactive calls.
# Columns and labels:
# [1] = target: T1, Replicative DNA helicase DnaB (Mycobacterium tuberculosis, UniProt P9WMR3); test: DnaB intein splicing inhibitors, dose response, biochemical, cell-free fluorescence (AID 449749); format: functional
# T1 sequence (P9WMR3 whole entry): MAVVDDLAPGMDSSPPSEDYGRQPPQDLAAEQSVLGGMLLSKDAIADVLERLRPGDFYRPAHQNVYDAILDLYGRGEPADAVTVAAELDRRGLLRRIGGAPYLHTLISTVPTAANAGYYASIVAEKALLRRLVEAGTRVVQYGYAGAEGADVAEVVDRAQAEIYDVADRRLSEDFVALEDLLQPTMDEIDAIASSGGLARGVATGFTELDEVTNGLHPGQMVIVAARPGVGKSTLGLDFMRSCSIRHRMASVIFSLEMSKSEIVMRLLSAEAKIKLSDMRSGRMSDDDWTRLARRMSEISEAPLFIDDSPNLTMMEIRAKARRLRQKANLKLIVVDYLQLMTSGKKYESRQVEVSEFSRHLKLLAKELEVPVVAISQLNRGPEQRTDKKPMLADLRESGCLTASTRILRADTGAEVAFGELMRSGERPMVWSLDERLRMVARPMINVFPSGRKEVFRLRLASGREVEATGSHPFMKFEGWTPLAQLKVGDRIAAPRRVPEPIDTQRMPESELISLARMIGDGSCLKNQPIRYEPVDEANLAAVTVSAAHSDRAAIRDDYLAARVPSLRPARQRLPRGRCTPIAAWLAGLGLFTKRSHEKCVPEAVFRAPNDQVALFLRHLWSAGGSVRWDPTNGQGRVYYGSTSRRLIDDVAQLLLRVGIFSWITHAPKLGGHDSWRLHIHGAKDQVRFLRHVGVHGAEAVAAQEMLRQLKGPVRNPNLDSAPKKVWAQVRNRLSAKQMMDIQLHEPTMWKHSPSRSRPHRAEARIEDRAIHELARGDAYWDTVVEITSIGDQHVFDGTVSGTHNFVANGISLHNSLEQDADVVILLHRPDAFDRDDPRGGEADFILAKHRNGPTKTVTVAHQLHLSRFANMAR
# [2] = cytotoxicity in HPDE-C7 cells, cell-based, fluorescence, HTS (AID 430); format: functional; details: Homo sapiens
# [3] = cytotoxicity in KRAS-transformed pancreatic duct cells, primary screen, cell-based, fluorescence, HTS (AID 431); format: functional; details: Homo sapiens;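 note: cell line used: HPDE-C7K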
# Protein RecA = target: T2, Protein RecA (Mycobacterium tuberculosis, UniProt P9WHJ3); test: Fluorescence Cell-Free Homogeneous Dose Retest to Identify Inhibitors of RecA-Intein Splicing Activity. [Related pubchem assays (depositor defined):AID2097, AID2223, AID489010, AID492950]; format: functional
# T2 sequence (P9WHJ3 whole entry): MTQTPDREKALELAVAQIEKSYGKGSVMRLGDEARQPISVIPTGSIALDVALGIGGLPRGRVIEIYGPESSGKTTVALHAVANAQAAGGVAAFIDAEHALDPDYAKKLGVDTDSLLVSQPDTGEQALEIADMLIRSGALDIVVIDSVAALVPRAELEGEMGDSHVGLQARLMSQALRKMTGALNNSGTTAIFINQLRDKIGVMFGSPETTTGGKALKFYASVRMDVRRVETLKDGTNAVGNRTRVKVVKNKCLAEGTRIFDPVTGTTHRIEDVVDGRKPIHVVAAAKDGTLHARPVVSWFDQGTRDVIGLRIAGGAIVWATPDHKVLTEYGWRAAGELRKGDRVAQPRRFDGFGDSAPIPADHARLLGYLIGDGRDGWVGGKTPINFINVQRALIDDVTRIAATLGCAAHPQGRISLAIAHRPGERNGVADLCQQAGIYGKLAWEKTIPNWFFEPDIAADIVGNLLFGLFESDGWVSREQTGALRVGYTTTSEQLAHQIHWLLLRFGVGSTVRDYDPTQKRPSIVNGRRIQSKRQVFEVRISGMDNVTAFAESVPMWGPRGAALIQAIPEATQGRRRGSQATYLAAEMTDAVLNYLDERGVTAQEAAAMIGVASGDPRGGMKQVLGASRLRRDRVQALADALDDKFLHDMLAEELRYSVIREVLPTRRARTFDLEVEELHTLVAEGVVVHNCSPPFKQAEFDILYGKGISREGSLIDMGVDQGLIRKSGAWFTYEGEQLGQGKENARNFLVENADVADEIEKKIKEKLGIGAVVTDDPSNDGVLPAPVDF
# Estrogen receptor beta [4] = target: T3, Estrogen receptor beta (Homo sapiens, UniProt Q92731); test: ERβ–SRC-3 coactivator interaction inhibitors, confirmation, orthogonal assay, biochemical, ELISA, streptavidin-HRP readout (AID 1060)
# Estrogen receptor beta [5] = target: T3, Estrogen receptor beta
# Ion channel NompC = Ion channel NompC (Danio rerio, UniProt Q7T1G6); test: Fluorescence counterscreen assay for TRPML3 agonists: dose response cell-based high-throughput screening assay to identify agonists of the transient receptor potential channel N1 (TRPN1). [Related pubchem assays: 1526, 1424, 1448 ]; format: functional
# Mucolipin-3 = Mucolipin-3 (Homo sapiens, UniProt Q8TDD5); test: Dose response cell-based high-throughput screening assay for agonists of the transient receptor potential channel ML3 (TRPML3). [Related pubchem assays: 1526, 1424, 1448 ]; format: functional
# Estrogen receptor = Estrogen receptor (Homo sapiens, UniProt P03372);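 note: potency for inhibiting coactivator peptide recruitment to the receptor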
# [6] = cytotoxicity toward NIH3T3 fibroblasts, dose response, counter-screen, cell-based, ATP luminescence, mouse fibroblasts (AID 2010); format: functional;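 note: cells exposed to compound for about 90 hours before reading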
# [7] = inhibitors of intracellular T. cruzi replication, confirmation, NIH3T3 host cells, beta-gal luminescence (AID 2044); format: functional, cell-based;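 note: intracellular parasites grown in NIH/3T3 mouse fibroblasts as host cells; luminescent beta-galactosidase reporter signal from transgenic T. cruzi replicating inside host cells; inhibitors lower the luminescence signal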
# [8] = inhibitors of SNCA 5'UTR-driven reporter translation, confirmation, H4 neuroglioma cells, luminescence (AID 1988); format: functional, cell-based
# BJ [9] = test: cytotoxicity toward BJ-TERT-LT-ST fibroblasts, dose response, cell-based, RAS-independent, luminescence (AID 1935); format: functional; details: Homo sapiens;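 note: BJ fibroblasts immortalized with TERT plus LT and ST oncogenes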
# [10] = target: T4, Heat shock factor protein 1 (Mus musculus, UniProt P38532); test: HSF1 potentiators in luciferase reporter cells, confirmation, cell-based, NIH3T3, luminescence, dose retest (AID 435004); format: functional;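 note: stress induced by proteasome inhibitor MG132 added 30 min after compound; luciferase reporter driven by HSF1 response element in NIH3T3 cells; actives raise luminescence as potentiators of the MG132 stress response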
# T4 sequence (P38532 whole entry): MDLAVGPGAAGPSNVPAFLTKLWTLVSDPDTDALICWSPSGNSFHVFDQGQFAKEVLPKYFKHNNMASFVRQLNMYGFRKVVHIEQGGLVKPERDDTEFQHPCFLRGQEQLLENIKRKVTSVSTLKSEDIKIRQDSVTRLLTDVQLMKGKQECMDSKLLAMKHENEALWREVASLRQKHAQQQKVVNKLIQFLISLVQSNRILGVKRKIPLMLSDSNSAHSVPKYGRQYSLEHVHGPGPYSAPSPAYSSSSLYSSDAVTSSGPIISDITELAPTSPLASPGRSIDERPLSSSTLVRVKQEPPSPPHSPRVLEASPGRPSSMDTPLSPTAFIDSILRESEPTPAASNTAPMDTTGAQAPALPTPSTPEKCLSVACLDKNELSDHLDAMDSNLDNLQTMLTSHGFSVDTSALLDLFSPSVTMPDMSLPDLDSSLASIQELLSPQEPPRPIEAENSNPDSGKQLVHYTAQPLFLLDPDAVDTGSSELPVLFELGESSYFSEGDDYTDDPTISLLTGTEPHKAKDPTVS
# [11] = inhibitors of PGC1a acetylation in cells, dose response, cell-based, cherry-picked samples (AID 720514); format: functional;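 note: potency may reflect raised or lowered acetylation signal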
# BJ [12] = test: cells; format: functional, cell-based; details: Homo sapiens
# [13] = insulin promoter down-regulators in MIN6 cells, imaging, high-content screening, mouse beta cells (AID 1628); format: functional
# [14] = inhibitors of firefly luciferase expression or activity, dose response, H4 neuroglioma cells, luminescence (AID 1990); format: functional, cell-based
# [15] = cytotoxicity in MIN6 insulinoma cells, dose response, cytotoxicity control, cell-based, mouse insulinoma (AID 2122); format: functional;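 note: confirmatory high-throughput counterscreen run to flag cytotoxic compounds; mouse MIN-6 beta cells carrying an insulin promoter eGFP reporter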
# [16] = cytotoxicity toward DRD oncogenic fibroblasts, dose response, cell-based, non-viral oncogenic, luminescence (AID 1934); format: functional; details: Homo sapiens
# [17] = Luminescence Cell-Based Dose Response HTS to Identify Inhibitors of 5'UTR Stem-Loop Driven Prion Protein mRNA Translation in H4 Neuroglioblastoma Cells. [Related pubchem assays: 1827 (Project Summary), 1813 (Primary HTS)]; format: functional
# BJ [18] = test: cytotoxicity toward BJ-TERT fibroblasts, dose response, cell-based, RAS-independent, luminescence (AID 1933); format: functional; details: Homo sapiens
# Vero = test: host cell cytotoxicity of antiviral hits, dose response, cytotoxicity control for West Nile virus antiviral project, secondary assay (AID 1650); format: functional; details: Chlorocebus sabaeus
# [19] = target: T5, Apoptotic protease-activating factor 1 (Homo sapiens, UniProt O14727); format: functional
# T5 sequence (O14727 whole entry): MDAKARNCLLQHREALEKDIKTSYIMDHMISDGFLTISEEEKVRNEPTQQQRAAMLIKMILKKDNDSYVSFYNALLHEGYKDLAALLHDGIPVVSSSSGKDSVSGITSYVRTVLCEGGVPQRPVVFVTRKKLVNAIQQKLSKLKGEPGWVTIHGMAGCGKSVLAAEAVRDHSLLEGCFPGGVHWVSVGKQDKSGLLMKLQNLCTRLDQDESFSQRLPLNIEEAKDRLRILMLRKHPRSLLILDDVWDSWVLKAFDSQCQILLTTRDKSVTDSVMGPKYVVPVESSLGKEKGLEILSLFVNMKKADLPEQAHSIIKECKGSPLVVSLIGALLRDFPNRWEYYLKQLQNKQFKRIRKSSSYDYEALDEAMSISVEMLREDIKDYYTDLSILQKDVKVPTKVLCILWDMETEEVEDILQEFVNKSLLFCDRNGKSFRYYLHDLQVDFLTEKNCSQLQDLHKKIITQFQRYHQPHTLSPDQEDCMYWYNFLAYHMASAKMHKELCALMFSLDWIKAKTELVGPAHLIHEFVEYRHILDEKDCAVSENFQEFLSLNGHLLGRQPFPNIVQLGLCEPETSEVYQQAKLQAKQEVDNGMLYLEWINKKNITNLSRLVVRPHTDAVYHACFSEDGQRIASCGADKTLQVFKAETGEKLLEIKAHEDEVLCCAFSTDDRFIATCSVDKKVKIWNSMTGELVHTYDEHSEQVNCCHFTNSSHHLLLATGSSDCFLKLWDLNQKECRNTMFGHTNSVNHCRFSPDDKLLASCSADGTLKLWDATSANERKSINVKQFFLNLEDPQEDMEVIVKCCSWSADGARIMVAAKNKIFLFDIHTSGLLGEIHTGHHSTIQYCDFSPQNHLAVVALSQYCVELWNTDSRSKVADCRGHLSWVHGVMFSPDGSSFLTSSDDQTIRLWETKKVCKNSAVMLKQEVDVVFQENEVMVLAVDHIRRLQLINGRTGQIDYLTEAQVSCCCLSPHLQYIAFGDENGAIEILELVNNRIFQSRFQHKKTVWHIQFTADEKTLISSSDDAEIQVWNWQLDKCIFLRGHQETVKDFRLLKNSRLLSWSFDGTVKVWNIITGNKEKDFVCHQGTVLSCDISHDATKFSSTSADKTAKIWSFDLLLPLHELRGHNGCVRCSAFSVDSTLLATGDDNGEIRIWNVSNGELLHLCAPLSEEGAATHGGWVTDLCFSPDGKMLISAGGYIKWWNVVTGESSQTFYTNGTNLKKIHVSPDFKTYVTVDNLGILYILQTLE
# [20] = growth suppression of beta-catenin-knockout colon cells, dose response, cell-based, HCT116, human colon tumor (AID 1045); format: functional;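 note: HCT116 colon tumor cells with beta catenin knocked out; cells exposed to compound for 60 hours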
# [21] = growth suppression of PTEN-null colon cells, dose response, cell-based, HCT116 PTEN knockout (AID 1047); format: functional;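 note: HCT116 colon tumor cells with PTEN knocked out; cells exposed to compound for 60 hours before readout; potency for loss of cell viability measured by luminescence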
# T3 sequence (Q92731 whole entry): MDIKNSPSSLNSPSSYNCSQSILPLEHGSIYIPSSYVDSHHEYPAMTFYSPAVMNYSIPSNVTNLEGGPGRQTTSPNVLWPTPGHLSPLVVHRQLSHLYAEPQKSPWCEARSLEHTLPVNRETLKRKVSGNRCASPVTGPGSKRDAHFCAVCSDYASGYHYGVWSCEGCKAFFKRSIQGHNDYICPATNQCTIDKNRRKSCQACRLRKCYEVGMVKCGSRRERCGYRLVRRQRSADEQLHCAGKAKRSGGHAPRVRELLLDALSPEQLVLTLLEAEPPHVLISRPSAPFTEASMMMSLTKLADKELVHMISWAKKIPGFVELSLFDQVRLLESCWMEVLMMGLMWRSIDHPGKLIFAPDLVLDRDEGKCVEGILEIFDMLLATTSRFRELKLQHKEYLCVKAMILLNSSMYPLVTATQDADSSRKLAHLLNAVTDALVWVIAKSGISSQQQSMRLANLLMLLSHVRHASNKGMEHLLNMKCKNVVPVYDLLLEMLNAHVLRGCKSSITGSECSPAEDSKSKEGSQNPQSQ
# Sequence of Estrogen receptor (P03372 whole entry): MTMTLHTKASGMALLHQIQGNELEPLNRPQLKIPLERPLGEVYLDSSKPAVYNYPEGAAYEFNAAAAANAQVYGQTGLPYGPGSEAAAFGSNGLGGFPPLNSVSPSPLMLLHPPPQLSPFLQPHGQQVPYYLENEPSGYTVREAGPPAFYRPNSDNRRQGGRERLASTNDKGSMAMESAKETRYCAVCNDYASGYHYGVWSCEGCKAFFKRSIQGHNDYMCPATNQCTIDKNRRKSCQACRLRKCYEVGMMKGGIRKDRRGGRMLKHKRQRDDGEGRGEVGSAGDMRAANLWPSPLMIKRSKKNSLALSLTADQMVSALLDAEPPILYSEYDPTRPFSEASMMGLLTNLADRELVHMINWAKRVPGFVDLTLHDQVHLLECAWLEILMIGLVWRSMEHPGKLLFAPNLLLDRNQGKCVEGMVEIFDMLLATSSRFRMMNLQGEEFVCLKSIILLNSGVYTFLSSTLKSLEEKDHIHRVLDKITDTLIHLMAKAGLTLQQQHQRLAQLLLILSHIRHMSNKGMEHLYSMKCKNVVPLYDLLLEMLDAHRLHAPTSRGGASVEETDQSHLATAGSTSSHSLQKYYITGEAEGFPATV
# Sequence of Mucolipin-3 (Q8TDD5 whole entry): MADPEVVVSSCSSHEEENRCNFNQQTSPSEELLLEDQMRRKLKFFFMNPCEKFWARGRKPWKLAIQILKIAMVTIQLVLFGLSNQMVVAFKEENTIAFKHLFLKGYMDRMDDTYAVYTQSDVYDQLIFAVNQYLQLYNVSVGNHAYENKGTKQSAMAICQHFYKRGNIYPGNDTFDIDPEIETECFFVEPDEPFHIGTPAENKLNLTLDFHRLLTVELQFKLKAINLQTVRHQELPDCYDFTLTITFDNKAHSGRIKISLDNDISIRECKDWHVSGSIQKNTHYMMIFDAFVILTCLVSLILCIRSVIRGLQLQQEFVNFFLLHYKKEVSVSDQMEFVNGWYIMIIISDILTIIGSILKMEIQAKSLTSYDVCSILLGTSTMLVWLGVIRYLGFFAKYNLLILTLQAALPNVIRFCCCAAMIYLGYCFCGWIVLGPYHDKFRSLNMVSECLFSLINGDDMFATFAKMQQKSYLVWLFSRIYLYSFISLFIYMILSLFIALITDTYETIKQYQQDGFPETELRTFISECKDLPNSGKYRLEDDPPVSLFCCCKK
# Sequence of Ion channel NompC (Q7T1G6 whole entry): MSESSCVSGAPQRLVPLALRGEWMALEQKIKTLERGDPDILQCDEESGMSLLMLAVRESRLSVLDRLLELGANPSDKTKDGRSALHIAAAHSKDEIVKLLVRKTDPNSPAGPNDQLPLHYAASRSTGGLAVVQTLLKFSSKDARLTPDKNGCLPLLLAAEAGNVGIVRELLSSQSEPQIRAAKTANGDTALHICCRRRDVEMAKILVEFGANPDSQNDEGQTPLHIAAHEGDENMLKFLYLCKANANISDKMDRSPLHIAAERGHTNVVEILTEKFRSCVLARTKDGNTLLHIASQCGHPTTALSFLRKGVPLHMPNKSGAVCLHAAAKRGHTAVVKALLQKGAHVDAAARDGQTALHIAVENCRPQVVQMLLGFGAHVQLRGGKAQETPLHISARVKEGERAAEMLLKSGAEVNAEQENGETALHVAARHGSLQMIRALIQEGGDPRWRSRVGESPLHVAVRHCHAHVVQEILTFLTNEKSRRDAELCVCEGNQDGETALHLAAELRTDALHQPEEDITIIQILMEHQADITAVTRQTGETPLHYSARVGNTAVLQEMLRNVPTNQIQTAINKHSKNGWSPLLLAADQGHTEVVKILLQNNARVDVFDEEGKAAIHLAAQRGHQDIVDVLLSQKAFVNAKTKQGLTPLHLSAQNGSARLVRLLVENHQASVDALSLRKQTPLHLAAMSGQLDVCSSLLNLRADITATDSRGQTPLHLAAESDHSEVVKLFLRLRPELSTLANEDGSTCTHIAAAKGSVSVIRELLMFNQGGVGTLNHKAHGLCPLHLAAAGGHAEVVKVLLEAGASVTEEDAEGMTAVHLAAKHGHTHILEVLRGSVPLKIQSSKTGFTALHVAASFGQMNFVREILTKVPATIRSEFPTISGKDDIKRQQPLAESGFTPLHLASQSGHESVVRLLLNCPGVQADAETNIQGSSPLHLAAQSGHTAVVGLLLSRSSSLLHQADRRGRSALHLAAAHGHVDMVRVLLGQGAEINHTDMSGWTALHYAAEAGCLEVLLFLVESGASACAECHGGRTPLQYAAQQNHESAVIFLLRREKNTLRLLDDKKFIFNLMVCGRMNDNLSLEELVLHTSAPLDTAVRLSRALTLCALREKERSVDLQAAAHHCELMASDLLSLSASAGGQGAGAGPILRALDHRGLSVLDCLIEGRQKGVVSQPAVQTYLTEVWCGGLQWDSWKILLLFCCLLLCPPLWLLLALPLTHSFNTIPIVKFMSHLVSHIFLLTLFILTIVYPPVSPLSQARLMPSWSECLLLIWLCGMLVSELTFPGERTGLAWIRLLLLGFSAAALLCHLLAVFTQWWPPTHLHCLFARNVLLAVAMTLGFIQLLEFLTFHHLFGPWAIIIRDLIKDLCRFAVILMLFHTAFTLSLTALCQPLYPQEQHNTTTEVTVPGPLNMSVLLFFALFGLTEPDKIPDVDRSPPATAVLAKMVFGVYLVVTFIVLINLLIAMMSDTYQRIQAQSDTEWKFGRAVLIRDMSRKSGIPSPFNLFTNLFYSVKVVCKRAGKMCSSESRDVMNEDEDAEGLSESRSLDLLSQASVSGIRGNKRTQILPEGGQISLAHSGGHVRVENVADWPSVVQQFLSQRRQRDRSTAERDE
structure (smiles),measurement,setting,value
COc1ccc(-c2nnc(SC(=O)N3c4ccccc4Sc4ccccc43)o2)cc1,AC50,[1],1.79 µM (active)
same,EC50,[2],12.5 µM (active)
same,EC50,[3],8.96 µM (active)
same,EC50,Protein RecA,0.451 µM (active)
CC12CCC(=O)N1C(C(=O)OCC(=O)Nc1sccc1C#N)CS2 (stereo not drawn),IC50,Estrogen receptor beta [4],0.118 µM (not active)
same,IC50,Estrogen receptor beta [5],14.4 µM (active)
CC(C)N(C(=O)c1ccc2nc(-c3ccccc3)c(-c3ccccc3)nc2c1)C(C)C,EC50,Ion channel NompC,> 29.9 µM (not active)
same,EC50,Mucolipin-3,1.52 µM (active)
C/N=C1\SC(CC(=O)Nc2ccc(C(C)=O)cc2)C(=O)N1C (stereo not drawn),IC50,Estrogen receptor,> 50 µM (not active)
same,IC50,Estrogen receptor beta [5],> 50 µM (not active)
CN(C)CC#CCC(O)(c1ccccc1)C1CCCC1 (stereo not drawn),EC50,cells,0.016 µM (active)
same,EC50,[6],> 60 µM (not active)
same,EC50,[7],< 0.1 µM (active)
Cn1c(Cl)cnc1C1CC(=O)c2cc(Cl)ccc2O1 (stereo not drawn),EC50,[8],> 120 µM (not active)
same,EC50,BJ [9],7.45 µM (inconclusive)
same,EC50,[10],38.8 µM (active)
same,AC50,[11],16.9 µM (active)
same,EC50,BJ [12],8.32 µM (inconclusive)
same,IC50,[13],2.95 µM (active)
same,EC50,[14],10.9 µM (active)
same,IC50,[15],1.98 µM (active)
same,EC50,[16],7.73 µM (active)
same,EC50,[17],10.1 µM (active)
same,EC50,BJ [18],8.07 µM (active)
same,CC50,Vero,17.9 µM (active)
Nc1c(C(=O)NCc2ccc3c(c2)OCO3)c2nc3ccccc3nc2n1CCCN1CCOCC1,IC50,[19],76.8 µM (active)
same,EC50,[2],9.92 µM (active)
same,EC50,[20],20.2 µM (active)
same,EC50,[3],13.2 µM (active)
same,EC50,[21],20.6 µM (active)
CN(C)CCN(C(=O)c1ccc(S(=O)(=O)N2CCc3ccccc32)cc1)c1nc2ccc(F)cc2s1,EC50,cells,0.188 µM (active)
same,EC50,[6],> 60 µM (not active)
same,EC50,[7],< 0.1 µM (active)
